Structures can show the parent of a compound that is named as a salt.

For data set [1] the following is noted: total Cmax, therapeutically relevant maximum total plasma concentration; source not given; cited from earlier work.
The subject of data set [2] is cardiac microtissues. The data set is described as follows: Mitochondrial membrane potential (ΔΨm, TMRE imaging) in cardiac microtissues. The format is cell-based, human. The following applies: for IC50: read-out: Mitochondrial membrane potential (ΔΨm) IC50. Here is the method:
(§1) Cardiac microtissues were stained with fluorescent probes in cell culture media, 40 µl media was removed and 40 µl of 2x multiplexed dye was added back to the well for 30 minutes at 37 °C, 5% CO2. Fluorescent probes used were ER-Tracker blue (2 µM) to measure endoplasmic reticulum (ER) integrity and TMRE (500 nM) to measure mitochondrial membrane potential (ΔΨm). All microtissues were imaged on a Cell Voyager 7000 (YokogawaInc.) and images captured using a 20x objective (Olympus UPLSAPO 0.75 NA, 0.6 mm WD), with a 2 × 2 bin. Plates are imaged live, prior to use the stage temperature was set to 37 °C and CO2 level at 5%. […] Transmitted light images were acquired using a 100 W Halogen lamp as an illumination source. Images were captured over a 60 μm range in the Z-axis with a 5 μm interval between slices. Z-stack images were output as a maximal projection of multiple z-planes.
(§2) Maximum projection images were imported and analysed in the Columbus Platform (v2.7, Perkin Elmer Inc.).

The subject of data set [3] is cardiac microtissues. Kind of data set: Cellular viability (ATP depletion, CellTiter-Glo) in cardiac microtissues. The format is cell-based, human. The following applies: for IC50: read-out: Cellular viability (ATP depletion) IC50. Here is the method:
(§3) Cellular ATP concentrations were assessed using the CellTiter-Glo® Luminescent Cell Viability Assay as per the manufacturer’s instructions (Promega); for cardiac microtissues 40 µl media was removed prior to the addition of 40 µl CellTiter-Glo® reagent. […] Data from the same treatment on minimum of 3 occasions were averaged to represent the mean ATP measurement.
A general note: In ATP-based viability assays light output follows the ATP content of the culture.

The test system of data set [4] is cardiac microtissues. Kind of data set: ER integrity (ER-Tracker blue imaging) in cardiac microtissues. The format is cell-based, human. The following applies: for IC50: read-out: ER integrity IC50. As for the experimental part:
as §1, §2

Data set [5] has as its system hCMEC. The data set is described as follows: Mitochondrial membrane potential (ΔΨm) in 2D monoculture. The following applies: Homo sapiens. The format is cell-based. As for the experimental part:
(§4) For 2D monoculture, hiPS-CM, hCMEC and hCF were cultured as described above and seeded in CellCarrier-384 Ultra microplates (Perkin Elmer, 6057300) at 5000, 2500 and 1750 cells/well respectively.
(§5) Monoculture cells were stained with fluorescent probes diluted in cell culture media, 25 µl media was removed and 25 µl of 2x multiplexed dye was added back to the well for 15 minutes at 37 °C, 5% CO2.

Data set [6] concerns hiPS-CM. The description is as above. The conditions noted are these: Homo sapiens. The format is cell-based. Here is the method: as §4, §5
Data set [7] concerns hCF. The data set is described as follows: Cellular viability (ATP depletion) in 2D monoculture. The conditions noted are these: Homo sapiens, read-out: Cellular viability (ATP depletion) IC50.
The subject of data set [8] is hCMEC. Kind of data set: ER integrity in 2D monoculture. The format is cell-based. The following applies: Homo sapiens. As for the experimental part:
as §4, §5

Data set [9] has as its system hiPS-CM. Kind of data set: ER integrity in 2D monoculture. The format is cell-based. The conditions noted are these: Homo sapiens. As for the experimental part: as §4, §5
Data set [10] concerns hCMEC. The data set is described as follows: Cellular viability (ATP depletion) in 2D monoculture. The format is cell-based. The conditions noted are these: Homo sapiens. Here is the method:
as §4, §3

Data set [11] has as its system hiPS-CM. The description is as above. Format: cell-based. The following applies: Homo sapiens, 72 hours. As for the experimental part:
as §4, §3

For data set [12], the system named is hCF. Kind of data set: Mitochondrial membrane potential (ΔΨm) in 2D monoculture. The conditions noted are these: Homo sapiens, read-out: Mitochondrial membrane potential (ΔΨm) IC50.
The subject of data set [13] is hCF. The data set is described as follows: ER integrity in 2D monoculture. The conditions noted are these: Homo sapiens, read-out: ER integrity IC50.
Setting [14] is: Homo sapiens, cardiac microtissues, 72 hours, geometric mean.
Setting [15] is: cardiac microtissues, 72 hours, geometric mean.
Where [16] appears, read: cardiac microtissues, mechanistic fingerprint.

With `Nc1nc2c(ncn2COCCO)c(=O)[nH]1` [Acyclovir], in data set [1], the maximum concentration (Cmax) is 6660 nM. Moreover, the IC50 in data set [2] (setting [14]), in data set [3] (setting [14]) and in [4] (setting [14]) was above 100 µM each time.
On to `C[C@@H]1[C@H](O)[C@@H](C)/C=C/C=C/C=C/C=C/C=C/C=C/C=C/[C@H](O[C@@H]2O[C@H](C)[C@@H](O)[C@H](N)[C@@H]2O)C[C@@H]2O[C@](O)(C[C@@H](O)C[C@@H](O)[C@H](O)CC[C@@H](O)C[C@@H](O)CC(=O)O[C@H]1C)C[C@H](O)[C@H]2C(=O)O` [Amphotericin B], for which the Cmax in data set [1] was 9000 nM. Further, the IC50 is above 50 µM in [2] (setting [14]), 37.6 µM in data set [3] (setting [14]) and 3.56 µM in [4] (setting [14]).
With `CC(C)C[C@H](NC(=O)[C@H](Cc1ccccc1)NC(=O)c1cnccn1)B(O)O` [Bortezomib], the Cmax in [1] was 290 nM. The results for the IC50 in data set [2] (setting [14]), in [3] (setting [14]) and in data set [4] (setting [14]) were 1.62 µM, 0.35 µM and 91.8 µM, respectively.
Take `O=C1CC2(CCCC2)CC(=O)N1CCCCN1CCN(c2ncccn2)CC1` [Buspirone HCl]: the Cmax in [1] was 30 nM. Moreover, the IC50 is above 100 µM in [2] (setting [14]), 56.4 µM in data set [3] (setting [14]) and above 100 µM in data set [4] (setting [14]).
On to `COc1cc(N)c(Cl)cc1C(=O)NC1CCN(CCCOc2ccc(F)cc2)CC1OC` (stereo not drawn) [Cisapride Hydrate], for which, in data set [1], the Cmax is 170 nM. Further, the IC50 in data set [2] (setting [15]) was above 100 µM; in data set [3] (setting [15]) it was 76.4 µM; in data set [4] (setting [15]), 32.8 µM.
Turning to `CN1CCN(C2=Nc3cc(Cl)ccc3Nc3ccccc32)CC1` [Clozapine], the peak concentration (Cmax) in data set [1] was 470 nM.
For `O=P1(N(CCCl)CCCl)NCCCO1` (stereo not drawn) [Cyclophosphamide], the Cmax in data set [1] is 153000 nM. The IC50 in data set [2] (Homo sapiens, 72 h) was determined as 65.7 µM; in data set [3] (Homo sapiens, 72 h), 54.4 µM; in [4] (Homo sapiens, 72 h), 60.7 µM.
Regarding `C#Cc1cccc(Nc2ncnc3cc(OCCOC)c(OCCOC)cc23)c1` [Erlotinib], in data set [1], the Cmax was 3000 nM. The 50% inhibitory concentration (IC50) in data set [2] (setting [14]) is above 30 µM; in data set [3] (setting [14]), 20.8 µM; in data set [4] (setting [14]), above 30 µM.
With `O=c1[nH]cc(F)c(=O)[nH]1` [Fluorouracil], in [1], the highest concentration (Cmax) is 4610 nM. Also, the figures for the IC50 in [2] (setting [14]), in data set [3] (setting [14]) and in data set [4] (setting [14]) were 11.3 µM, 27.5 µM and 60 µM, respectively.
On to `Cc1ccc(C)c(OCCCC(C)(C)C(=O)O)c1` [Gemfibrozil], for which the Cmax in [1] was 99900 nM. The IC50 in data set [2] (setting [14]), in data set [3] (setting [14]) and in data set [4] (setting [14]) was above 100 µM each time.
With `CC(=O)[C@]1(O)Cc2c(O)c3c(c(O)c2[C@@H](O[C@H]2C[C@H](N)[C@H](O)[C@H](C)O2)C1)C(=O)c1ccccc1C3=O` [Idarubicin HCl], the Cmax in data set [1] was 120 nM. For the same compound, the IC50 in data set [2] (setting [14]) amounted to 0.97 µM; in data set [3] (setting [14]), 0.03 µM; in data set [4] (setting [14]), 1.67 µM.
With `CC(C)NCC(O)c1ccc(O)c(O)c1` (stereo not drawn) [Isoproterenol HCl], the Cmax in [1] is 10 nM. The IC50 was 59.2 µM in [2] (setting [14]), above 100 µM in data set [3] (setting [14]) and 76.9 µM in [4] (setting [14]).
In the case of `CC(C(=O)O)c1cccc(C(=O)c2ccccc2)c1` (stereo not drawn) [Ketoprofen], the results for the IC50 in data set [2] (setting [14]), in data set [3] (setting [14]) and in data set [4] (setting [14]) were above 100 µM, 37.6 µM and above 100 µM, respectively.
`CS(=O)(=O)CCNCc1ccc(-c2ccc3ncnc(Nc4ccc(OCc5cccc(F)c5)c(Cl)c4)c3c2)o1` [Lapatinib]: the 50% inhibitory concentration (IC50) in data set [5] (24 hours) turned out to be 5.47 µM; in data set [5] (72 hours), 11.6 µM; in [6] (24 hours), 31.9 µM; in data set [6] (72 hours), 23.6 µM; in data set [7] (24 h) it was 21.6 µM; in [7] (72 h), 11 µM. Further, the IC50 came out at 26.7 µM in data set [8] (24 hours); 4.4 µM in data set [8] (72 hours); 23.6 µM in data set [9] (24 hours); 3.1 µM in data set [9] (72 hours); 16.2 µM in data set [10] (24 hours); 3.07 µM in data set [10] (72 hours). Moreover, the IC50 in [11] is above 100 µM; in data set [12] (24 h), 42.9 µM; in data set [12] (72 h) it was 28.8 µM; in [2] (setting [14]), 2.84 µM; in data set [3] (setting [14]), 12.9 µM; in [4] (setting [14]), above 100 µM. For the same compound, the results for the IC50 in data set [13] (24 h) and in data set [13] (72 h) were 14.7 µM and 11 µM, respectively. Further, the Cmax in [1] was 4180 nM. The “ΔΨm modulated at multiple of total Cmax” value in data set [2] (setting [16]) is at most 1 times the total Cmax. Besides, in data set [3] (setting [16]), the “Cellular viability modulated at multiple of total Cmax” value is recorded as at most 10 times the total Cmax. In data set [4] (setting [16]), the “ER integrity modulated at multiple of total Cmax” value was at most 100 times the total Cmax.
For the compound `COC(=O)Nc1nc2ccc(C(=O)c3ccccc3)cc2[nH]1` [Mebendazole], the Cmax in data set [1] is 2030 nM. Besides, the results for the IC50 in [2] (setting [14]), in data set [3] (setting [14]) and in data set [4] (setting [14]) were above 50 µM, above 50 µM and 5.97 µM, respectively.
For `CN(C)CCN(Cc1cccs1)c1ccccn1` [Methapyrilene], the Cmax in data set [1] is 15300 nM.
As to `Nc1cc(N2CCCCC2)nc(N)[n+]1[O-]` [Minoxidil], the Cmax in [1] was 14800 nM. Moreover, the IC50 in data set [2] (setting [14]), in [3] (setting [14]) and in data set [4] (setting [14]) was above 50 µM in each case.
For the compound `O=C1c2c(O)ccc(O)c2C(=O)c2c(NCCNCCO)ccc(NCCNCCO)c21` [Mitoxantrone diHCl], the concentration for half-maximal inhibition (IC50) in data set [2] (setting [14]) stood at 0.98 µM; in data set [3] (setting [14]), 0.29 µM; in data set [4] (setting [14]), 1.1 µM.
In the case of `O=C1C[C@@H](c2ccc(O)cc2)Oc2cc(O)cc(O)c21` [Narigenin], in data set [1], the Cmax is 15400 nM. For the same compound, the IC50 in data set [2] (setting [15]) was above 100 µM; in data set [3] (setting [15]), 62.5 µM; in [4] (setting [15]), above 100 µM.
For `O=C(C1CCCCC1)N1CC(=O)N2CCc3ccccc3C2C1` (stereo not drawn) [Praziquantel], in data set [1], the highest concentration (Cmax) is 640 nM. Moreover, the IC50 was above 100 µM in data set [2] (setting [14]), 10.1 µM in [3] (setting [14]) and 0.82 µM in data set [4] (setting [14]).
Consider `CC(C)(C)c1ccc(C(O)CCCN2CCC(C(O)(c3ccccc3)c3ccccc3)CC2)cc1` (stereo not drawn) [Terfenadine], for which the Cmax in data set [1] was 130 nM. For the same compound, the values for the IC50 in data set [2] (setting [14]), in [3] (setting [14]) and in data set [4] (setting [14]) were above 100 µM, 13 µM and 23.7 µM, respectively.

A word on the Cmax: it is the highest concentration seen after dosing. The term IC50 denotes the point on the concentration scale where inhibition reaches its midpoint.

Source of the values: publication PMC6033897, “Characterization and Validation of a Human 3D Cardiac Microtissue for the Assessment of Changes in Cardiac Pathology” (Scientific Reports, 2018).
